The structures appear in SMILES notation. Values after ≈ are worked out from the molar mass of the structure shown.

Results on 21 molecules are retold here after publication PMC4778717 (ChemMedChem, 2015).

For one assay, the target named is EcSecAN68 (Escherichia coli, UniProt P10408). The assay is described as follows: biochemical. Also noted: species or system E. coli.
A further assay concerns E. coli NR698. The assay is described as follows: Bacteriostatic effect. In kind it is cell-based. As to conditions: for MIC: Escherichia coli, NR698, 24 h, read-out: MIC, E. coli NR698; for MIC, E. coli NR698: 24 hr incubation at 37 °C, outer membrane leaky mutant.
A further assay relates to S. aureus 6538. The assay is described as follows: Bacteriostatic effect. The assay is classed as cell-based. As to conditions: for MIC: Staphylococcus aureus, 6538, 24 h, read-out: MIC, S. aureus 6538; for MIC, S. aureus 6538: 24 hr incubation at 37 °C.

Sequence of EcSecAN68 (P10408 1-610): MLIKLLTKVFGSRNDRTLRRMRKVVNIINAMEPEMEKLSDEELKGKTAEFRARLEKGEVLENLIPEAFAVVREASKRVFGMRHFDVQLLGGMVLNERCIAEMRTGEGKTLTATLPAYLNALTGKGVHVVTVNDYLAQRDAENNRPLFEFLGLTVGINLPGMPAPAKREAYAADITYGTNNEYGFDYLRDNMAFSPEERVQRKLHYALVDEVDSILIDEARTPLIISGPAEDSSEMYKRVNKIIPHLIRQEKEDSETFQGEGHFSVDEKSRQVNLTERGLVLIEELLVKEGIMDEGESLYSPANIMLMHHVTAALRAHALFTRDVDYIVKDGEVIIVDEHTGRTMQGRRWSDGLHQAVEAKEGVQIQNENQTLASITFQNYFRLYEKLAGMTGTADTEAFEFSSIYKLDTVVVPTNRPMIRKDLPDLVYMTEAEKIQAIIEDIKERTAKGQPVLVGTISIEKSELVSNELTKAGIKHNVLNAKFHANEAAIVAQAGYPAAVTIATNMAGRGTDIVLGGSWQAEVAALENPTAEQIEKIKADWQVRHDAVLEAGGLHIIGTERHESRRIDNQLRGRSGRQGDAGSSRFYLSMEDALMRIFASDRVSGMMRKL

A word on the IC50: it is the midpoint of a concentration-inhibition curve. Read a high IC50 as weaker potency. Usually MIC stands for the lowest concentration that inhibits growth of the organism. At EcSecAN68, `Fc1cc(F)cc(-c2nnc(Sc3cc(Cl)nc(Sc4ccccc4)n3)[nH]2)c1` [Compound 12f, 4-Chloro-6-((5-(3,5-difluorophenyl)-4H-1,2,4-triazol-3-yl)thio)-2-(phenylthio) pyrimidine] came in with an IC50 of less than 50 µM. The MIC came to 31.3 µM (≈ 13.6 µg/mL) in the assay with E. coli NR698 and 20.8 µM (≈ 9.03 µg/mL) with S. aureus 6538.
Taken in the same sequence, the figures for `CSc1nc(Cl)cc(Sc2nnc(-c3cccc(F)c3)[nH]2)n1` [Compound 7f, 4-Chloro-6-((5-(3-fluorophenyl)-4H-1,2,4-triazol-3-yl)thio)-2-(methylthio) pyrimidine] were less than 50 µM, 200 µM (≈ 70.8 µg/mL) and 175 µM (≈ 61.9 µg/mL).
The like results for `FC(F)(F)c1cc(-c2nnc(Sc3cc(Cl)nc(Oc4ccccc4)n3)[nH]2)cc(C(F)(F)F)c1` [Compound 12c, 4-((5-(3,5-Bis(trifluoromethyl)phenyl)-4H-1,2,4-triazol-3-yl)thio)-6-chloro-2-phenoxy-pyrimidine] were, in that order, 9 µM, 8.3 µM (≈ 4.3 µg/mL) and 3.1 µM (≈ 1.61 µg/mL).
For the molecule `CSc1nc(C)cc(Sc2nnc(-c3cc(C(F)(F)F)cc(C(F)(F)F)c3)[nH]2)n1` [Compound 7a, 4-((5-(3,5-Bis(trifluoromethyl)phenyl)-4H-1,2,4-triazol-3-yl)thio)-6-methyl-2-(methylthio) pyrimidine], the results for the MIC in the assay with E. coli NR698 and with S. aureus 6538 were 33.3 µM (≈ 15 µg/mL) and 18.8 µM (≈ 8.49 µg/mL), respectively.
Molecule `CSc1nc(Cl)cc(Sc2nnc(-c3ccc(C(F)(F)F)cc3)[nH]2)n1` [Compound 7i, 4-Chloro-2-(methylthio)-6-((5-(4-(trifluoromethyl)phenyl)-4H-1,2,4-triazol-3-yl)thio) pyrimidine] returned an IC50 at EcSecAN68 of less than 50 µM. Moreover, the MIC with E. coli NR698 worked out at 25 µM (≈ 10.1 µg/mL); with S. aureus 6538, 14.6 µM (≈ 5.9 µg/mL).
On EcSecAN68, `FC(F)(F)c1cccc(-c2nnc(Sc3cc(Cl)nc(Sc4ccccc4)n3)[nH]2)c1` [Compound 12g, 4-Chloro-2-(phenylthio)-6-((5-(3-(trifluoromethyl)phenyl)-4H-1,2,4-triazol-3-yl)thio) pyrimidine] yielded an IC50 of less than 50 µM. For the same molecule, the MIC in the assay with E. coli NR698 and with S. aureus 6538 was 18.8 µM (≈ 8.76 µg/mL) in each case.
Take `FC(F)(F)c1cc(-c2nnc(Sc3nc(Cl)cc(Cl)n3)o2)cc(C(F)(F)F)c1` [Compound 17, 2-(3,5-Bis(trifluoromethyl)phenyl)-5-((4,6-dichloropyrimidin-2-yl)thio)-1,3,4-oxadiazole]: on EcSecAN68, the IC50 was found to be 70 µM. Further, the values for the MIC in the assay with E. coli NR698 and in the assay with S. aureus 6538 were greater than 250 µM and 18.8 µM (≈ 8.67 µg/mL), respectively.
`COc1cc(OC)cc(-c2nnc(Sc3cc(Cl)nc(SC)n3)[nH]2)c1` [Compound 7h, 4-Chloro-6-((5-(3,5-dimethoxyphenyl)-4H-1,2,4-triazol-3-yl)thio)-2-(methylthio) pyrimidine] showed an IC50 against EcSecAN68 of less than 50 µM. Also, the MIC in the assay with E. coli NR698 is 100 µM (≈ 39.6 µg/mL); in the assay with S. aureus 6538 it was greater than 250 µM.
With `N#Cc1c(-c2ccc(Br)cc2)nc(Sc2nc(Cl)cc(Cl)n2)[nH]c1=O` [Compound 20a, 4-(4-Bromophenyl)-2-((4,6-dichloropyrimidin-2-yl)thio)-6-oxo-1,6-dihydropyrimidine-5-carbonitrile], on EcSecAN68, the IC50 was less than 50 µM. In addition, the MIC in the assay on E. coli NR698 and with S. aureus 6538 was greater than 250 µM in each case.
`FC(F)(F)c1cc(-c2nnc(Sc3nc(Cl)cc(NCc4ccccc4)n3)[nH]2)cc(C(F)(F)F)c1` [Compound 16e, N-Benzyl-2-((3-(3,5-bis(trifluoromethyl)phenyl)-4H-1,2,4-triazol-5-yl)thio)-6-chloro-pyrimidin-4-amine] gave an IC50 against EcSecAN68 greater than 50 µM. The MIC in the assay on E. coli NR698 was no less than 250 µM; in the assay on S. aureus 6538, 50 µM (≈ 26.5 µg/mL).
The molecule `CSc1nc(Cl)cc(Sc2nnc(-c3cccc(C(F)(F)F)c3)[nH]2)n1` [Compound 7j, 4-Chloro-2-(methylthio)-6-((5-(3-(trifluoromethyl)phenyl)-4H-1,2,4-triazol-3-yl)thio) pyrimidine] displayed an IC50 on EcSecAN68 of less than 50 µM. The MIC in the assay on E. coli NR698 and in the assay on S. aureus 6538 was greater than 250 µM each time.
As for `Cc1cc(C)cc(-c2nnc(Sc3cc(Cl)nc(Sc4ccccc4)n3)[nH]2)c1` [Compound 12b, 4-Chloro-6-((5-(3,5-dimethylphenyl)-4H-1,2,4-triazol-3-yl)thio)-2-(phenylthio) pyri-midine], the “MIC, E. coli NR698” value with E. coli NR698 is greater than 250 µM. For the same molecule, the “MIC, S. aureus 6538” value with S. aureus 6538 came out at 12.5 µM (≈ 5.32 µg/mL).
`COc1cc(O)cc(-c2nnc(Sc3cc(Cl)nc(Sc4ccccc4)n3)[nH]2)c1` [Compound 12j, 3-(5-((6-Chloro-2-(phenylthio)pyrimidin-4-yl)thio)-4H-1,2,4-triazol-3-yl)-5-methoxy phenol] came in with an IC50 at EcSecAN68 of less than 50 µM. In addition, the MIC in the assay with E. coli NR698 was greater than 250 µM; in the assay with S. aureus 6538 it was no less than 250 µM.
As to `COc1cc(OC)cc(-c2nnc(Sc3cc(Cl)nc(Sc4ccccc4)n3)[nH]2)c1` [Compound 12h, 4-Chloro-6-((5-(3,5-dimethoxyphenyl)-4H-1,2,4-triazol-3-yl)thio)-2-(phenylthio) pyrimidine], the IC50 against EcSecAN68 is less than 50 µM. Besides, the minimum inhibitory concentration (MIC) in the assay on E. coli NR698 was greater than 250 µM; in the assay on S. aureus 6538, no less than 100 µM.
Taken in the same sequence, the figures for `CSc1nc(Cl)cc(Sc2nnc(-c3cc(F)cc(F)c3)[nH]2)n1` [Compound 7g, 4-Chloro-6-((5-(3,5-difluorophenyl)-4H-1,2,4-triazol-3-yl)thio)-2-(methylthio) pyrimidine] were greater than 100 µM, 50 µM (≈ 18.6 µg/mL) and 41.6 µM (≈ 15.5 µg/mL).
With `Cc1cc(C)cc(-c2n[nH]c(Sc3nc(Cl)cc(Cl)n3)n2)c1` [Compound 16b, 4,6-Dichloro-2-((3-(3,5-dimethylphenyl)-1H-1,2,4-triazol-5-yl)thio) pyrimidine], the values for the MIC in the assay with E. coli NR698 and in the assay on S. aureus 6538 were greater than 164 µM and 100 µM (≈ 35.2 µg/mL), respectively.
Molecule `FC(F)(F)c1cc(-c2nnc(Sc3cc(Cl)ncn3)[nH]2)cc(C(F)(F)F)c1` [Compound 9b, 4-((5-(3,5-Bis(trifluoromethyl)phenyl)-4H-1,2,4-triazol-3-yl)thio)-6-chloropyrimidine] registered an IC50 against EcSecAN68 of 100 µM. Further, the MIC was determined as 35.4 µM (≈ 15.1 µg/mL) in the assay with E. coli NR698 and 18.8 µM (≈ 8 µg/mL) in the assay on S. aureus 6538.
Taken in the same sequence, the figures for `CSc1nccc(Sc2nnc(-c3cc(C(F)(F)F)cc(C(F)(F)F)c3)[nH]2)n1` [Compound 7c, 4-((5-(3,5-Bis(trifluoromethyl)phenyl)-4H-1,2,4-triazol-3-yl)thio)-2-(methylthio) pyrimidine] were 95 µM, 50 µM (≈ 21.9 µg/mL) and 62.5 µM (≈ 27.3 µg/mL).
The like results for `FC(F)(F)c1cc(-c2n[nH]c(Sc3nc(Cl)cc(Cl)n3)n2)cc(C(F)(F)F)c1` [Compound 16a, 2-((3-(3,5-Bis(trifluoromethyl)phenyl)-1H-1,2,4-triazol-5-yl)thio)-4,6-dichloropyrimidine] were, in that order, 50 µM, 12.5 µM (≈ 5.75 µg/mL) and 6.3 µM (≈ 2.9 µg/mL).
Taken in the same sequence, the figures for `CSc1nccc(Sc2nnc(-c3cc(C)cc(C)c3)[nH]2)n1` [Compound 7d, 4-((5-(3,5-Dimethylphenyl)-4H-1,2,4-triazol-3-yl)thio)-2-(methylthio) pyrimidine] were 65 µM, greater than 250 µM and greater than 250 µM.
With `OCCCCSc1nc(Cl)cc(Sc2nnc(-c3cc(C(F)(F)F)cc(C(F)(F)F)c3)[nH]2)n1` [Compound 12e, 4-((4-((5-(3,5-Bis(trifluoromethyl)phenyl)-4H-1,2,4-triazol-3-yl)thio)-6-chloropyri-midin-2-yl)thio) butan-1-ol], the “MIC, E. coli NR698” value with E. coli NR698 is 43.8 µM (≈ 23.2 µg/mL). Further, the “MIC, S. aureus 6538” value against S. aureus 6538 came to 25.0 µM (≈ 13.2 µg/mL).
